Assays:
anti-CD3-activated PBMCs = assay: Effects of TPC on cytokine secretion by anti-CD3-activated PBMCs (Luminex); type: cell-based
Experimental: FIGS. 1A-1B: Very low dose TPC has a strong immunomodulatory effect. Bar graphs showing the effects of TPC at a range of doses, on anti-CD3-activated PBMCs 48 h after treatment. Secretion of pro-inflammatory cytokine TNFα (1A) and anti-inflammatory cytokine IL-10 (1B) are shown. Column statistics, one-sample t test compared to a hypothetical value of 100 was used. *-P<0.05, **-P<0.01, ***-P<0.005
The immunomodulatory effect of TPC was determined in vitro on PBMCs from healthy donors. PBMCs were harvested and allowed to adhere to culture plates. TPC at various concentrations, or PBS or dexamethasone as controls were then added and an hour later anti-CD3 stimulating antibody was added to induce an inflammatory state. 48 hours later the supernatant was harvested from the cells and cytokine levels were assayed using standard Luminex protocols. Levels of cytokine induction was interpolated from standard curves, using 5-parameter non-linear regression analyses, where y=(A+((B−A)/(1+(((B−E)/(E−A))*((x/C)^D))))). The interpolated data was then normalized to vehicle controls (anti-CD3 stimulation alone). […] Once again, the effect was greatest at very low doses, as the 0.005 μg/ml TPC dose had the strongest effect causing a 33% increase in IL-10 levels. […] (FIG. 1B).

[1] = test system: THP-1 human monocyte cell line polarized to M1 macrophages; assay: IL-10 secretion by THP-1-derived M1 macrophages; type: cell-based; details: THP-1 M0 (100 ng/ml PMA 48 hours) polarized to M1 with 10 ng/ml LPS; TPC 400 ug/ml, dexamethasone 1 uM, IL-4 and IL-13 20 ng/ml; versus PBS control
Experimental: FIG. 2: TPC enhances the anti-inflammatory effect of steroids. A bar graph showing the effect of IL-4/IL-13, TPC, dexamethasone and dexamethasone+TPC on IL-10 secretion by macrophages. *-P<0.05, **-P<0.01
To test the hypothesis that a combination of steroids and TPC will have a beneficial effect on treating inflammation, cells of the THP-1 human monocyte cell line were differentiated to M0 macrophages with 100 ng/ml PMA for 48 hours and then polarized to M1 macrophages with 10 ng/ml LPS. These cells were then tested with the following compounds: PBS (negative control), IL-4 and IL-13 (20 ng/ml, positive control as they induce the cells to a M2 phenotype), TPC (400 ug/ml), dexamethasone (1 uM), and a combination of dexamethasone (1 uM) and TPC (400 ug/ml). […] Further, since TPC itself reduces pro-inflammatory cytokine secretion as well, it may be used, not just in combination, but to reduce the total dose of steroid administered.

[2] = test system: mice with collagen-induced arthritis; details: subcutaneous (5 μg/mouse) and oral (50 μg/mouse and 250 μg/mouse) administration; cited from earlier work
[3] = test system: experimental mouse models of autoimmune diseases; details: in the three mouse models; cited from earlier work
lupus prone mice = details: subcutaneous (5 μg/mouse) and oral (50 μg/mouse and 250 μg/mouse) administration; cited from earlier work
[4] = test system: mice with dextran sodium sulfate induced colitis; details: subcutaneous (5 μg/mouse) and oral (50 μg/mouse and 250 μg/mouse) administration; cited from earlier work
[5] = 0.005 μg/ml TPC, PBMCs from healthy donors, anti-CD3 stimulation, supernatant at 48 hours, normalized to vehicle control (anti-CD3 alone)

## Tuftsin-PhosphorylCholine [TPC]
anti-CD3-activated PBMCs; [5]
  increase in IL-10 levels: 33%
  lowering of TNFα levels: 41%
anti-CD3-activated PBMCs; anti-CD3-activated PBMCs, 48 hours, TPC relative to dexamethasone
  increase on IL-10 secretion as compared to dexamethasone: 220%
[1]
  IL-10 expression: strong increase
[2]
  joint damage: prevented
[3]
  T and B regulatory cells: enhanced expansion
  anti-inflammatory IL-10: increased
  proinflammatory cytokine expression such as IL-6, IL-17, TNFα, IFNγ: inhibited
Lupus prone mice
  glomerulonephritis onset: prevented
[4]
  colitis: reduced
